This is an account of results in PMC13288968 (ACS chemical neuroscience, 2026).

Several values for one entry are separate records, joined by “and”; a condition that tells them apart may be missing. Equal values may be shown once.

Series [1] concerns the target T1, ΔFOSB/JUND bZIP redox switch (ΔFOSB Cys172/JUND Cys285) (Mus musculus, UniProt P13346).
T1 sequence (P13346 153-219 isoform P13346-2): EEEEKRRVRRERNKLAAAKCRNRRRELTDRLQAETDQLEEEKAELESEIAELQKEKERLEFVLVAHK
T1 sequence (P15066 260-326 partner limits assumed): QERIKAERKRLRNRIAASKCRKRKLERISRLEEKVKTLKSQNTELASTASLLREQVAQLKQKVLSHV
The series is described as follows: Redox switch closure of ΔFOSB/JUND bZIP assessed by non-reducing SDS-PAGE. The series is classed as biochemical.

In series [2] the target is T2, ΔFOSB bound to genomic DNA in hippocampus of APP mice (Mus musculus, UniProt P13346).
T2 sequence (P13346 1-237 isoform P13346-2): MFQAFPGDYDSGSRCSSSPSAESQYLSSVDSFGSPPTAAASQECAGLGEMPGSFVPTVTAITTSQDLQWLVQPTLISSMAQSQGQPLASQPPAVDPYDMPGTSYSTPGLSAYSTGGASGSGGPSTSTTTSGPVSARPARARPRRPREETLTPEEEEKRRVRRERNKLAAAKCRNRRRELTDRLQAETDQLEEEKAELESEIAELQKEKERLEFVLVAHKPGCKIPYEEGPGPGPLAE
The settings on record: three days into the dorsal hippocampus of APP mice; cited from earlier work.

Series [3] concerns the target T3, ΔFOSB homomer (full-length) (mouse, UniProt P13346-2 2-237).
T3 sequence: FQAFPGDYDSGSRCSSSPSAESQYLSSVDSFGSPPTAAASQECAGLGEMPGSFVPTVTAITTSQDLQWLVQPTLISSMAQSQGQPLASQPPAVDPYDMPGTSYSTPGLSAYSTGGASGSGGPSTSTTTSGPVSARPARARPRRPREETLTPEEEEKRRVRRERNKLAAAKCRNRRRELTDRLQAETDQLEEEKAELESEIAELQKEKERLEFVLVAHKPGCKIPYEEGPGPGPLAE
In words: fluorescence polarization. For orientation: Polarisation of emitted light reports the rotation of a fluorescent probe.

Series [4] concerns the target T4, ΔFOSB (full-length);JUND (full-length) (mouse;mouse, UniProt P13346-2;P15066 2-237;2-341, |).
T4 sequence 1: T3 sequence
T4 sequence 2: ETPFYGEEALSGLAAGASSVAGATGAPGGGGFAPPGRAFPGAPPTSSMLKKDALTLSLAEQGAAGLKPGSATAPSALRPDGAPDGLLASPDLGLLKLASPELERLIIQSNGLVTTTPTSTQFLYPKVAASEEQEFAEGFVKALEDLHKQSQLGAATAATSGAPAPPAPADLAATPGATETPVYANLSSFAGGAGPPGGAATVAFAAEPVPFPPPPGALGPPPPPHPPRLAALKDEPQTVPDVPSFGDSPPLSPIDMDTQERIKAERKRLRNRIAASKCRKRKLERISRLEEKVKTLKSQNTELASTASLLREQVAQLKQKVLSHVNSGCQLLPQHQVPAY
The series is described as follows: fluorescence polarization.

For the molecule `NC1=NN(c2ccc(Oc3ccccc3)c(S(=O)(=O)O)c2)C(=O)C1` [JPC0661], in series [1] (500 μM compound, 100 μM diamide, non-reducing SDS-PAGE), the “effect on closure of the redox switch under oxidation” value is “None of the three compounds (YL0441, JPC0661, and QB0365) prevented closure of the redox switch”. Also, the “promotion of oxidation / redox switch closure by compound alone” value in series [1] (0.5 mM compound, no diamide, SDS-PAGE) is given as “did not oxidize the protein to induce closure of the redox switch”. Also, the “reduction in number of ΔFOSB-bound AP-1 sites (CUT&RUN)” value in series [2] was 60% and ~ 60%.

B1: TMR-cdk5 (cdk5 oligo) (dsDNA)
DNA 1: CGTCGGTGACTCAAAACAC
DNA 2: GTGTTTTGAGTCACCGACG
Turning to B1, the binding result in series [3] and in series [4] was “binds” in each case.
